Results reported in patent publication US8962244B2, “Compounds for modulating RNA binding proteins and uses therefor” (University of Massachusetts, priority 2009, dated 2015).

What follows are molecules tested against T1, POS-1 (Caenorhabditis elegans, UniProt G5EF15) (assay: Fluorescence polarization screening of POS-1 binding to fluorescein-labeled BMF018 RNA). Details: 192 μM test compound; score = polarization relative to no-drug and no-protein controls; 0.25 = 75% inhibition; lowest score = greatest inhibition; read-out: POS-1 score.
T1 construct: 6-his tag (N); made in house; host or cells: E. coli BL21 (DE3) Gold
T1 sequence (G5EF15 80-180): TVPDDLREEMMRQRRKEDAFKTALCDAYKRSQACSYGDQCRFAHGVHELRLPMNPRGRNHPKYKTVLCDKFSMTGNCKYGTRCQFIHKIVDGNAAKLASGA

| remaining activity at 192 µM [%] | SMILES |
| --- | --- |
| 3.98 | O=C(NC1CCCCCC1)c1ccc(I)cc1 [CW] |
| 4.3 | O=C1NN(c2ccc(F)c(Cl)c2)C(=O)/C1=C\c1cccc(OC(=O)c2cccs2)c1 [CX] |
| 4.35 | O=C(O)c1ccc(NC(=S)NC(=O)c2sc3ccccc3c2Cl)cc1 [CY] |
| 4.89 | O=S(=O)(Nc1ccc(S(=O)(=O)Nc2nccs2)cc1)c1ccc(Br)cc1 [CZ] |
| 6.51 | COc1ccc(N2CC(C(=O)Nc3ccc(S(=O)(=O)Nc4nccs4)cc3)CC2=O)cc1 (stereo not shown) [DA] |
| 6.9 | CC1=NN(c2ccc(Cl)c(C(=O)O)c2)C(=O)/C1=C/c1cccc(OC(=O)c2cccs2)c1 [DB] |
| 7.5 | NC(=O)c1ccccc1NC(=O)CN(c1cccc(Br)c1)S(=O)(=O)c1ccccc1 [DC] |
| 8.86 | O=[N+]([O-])c1cc(C2Nc3ccc4ccccc4c3C3C=CCC32)ccc1O (stereo not shown) [DE] |
| 10.1 | COc1cc(/C=C2/C(=O)N(c3ccc(Cl)c(C(=O)O)c3)N=C2C)ccc1OC(=O)c1cccs1 [DF] |
| 11.9 | CCc1nnc(NS(=O)(=O)c2ccc(NCc3cc(Cl)cc(Cl)c3O)cc2)s1 [DH] |
| 11.9 | COc1ccc(S(=O)(=O)Nc2ccc(C)cc2NS(=O)(=O)c2ccc(OC)cc2)cc1 [DI] |
| 14.3 | CCOc1ccc(C(=O)NC(=S)Nc2ccc(C(=O)O)c(Cl)c2)cc1Br [DK] |

What follows are molecules tested against T2, MEX-5 (Caenorhabditis elegans, UniProt Q9XUB2) (assay: Fluorescence polarization screening of MEX-5 binding to fluorescein-labeled TCR2 RNA). Details: 192 μM test compound; score = polarization relative to no-drug and no-protein controls; 0.25 = 75% inhibition; lowest score = greatest inhibition; read-out: MEX-5 score.
T2 construct: The fragment of mex-5 containing the TZF domain (amino acids 236-350) was amplified; made in house; host or cells: Escherichia coli JM109
T2 sequence (Q9XUB2 236-350): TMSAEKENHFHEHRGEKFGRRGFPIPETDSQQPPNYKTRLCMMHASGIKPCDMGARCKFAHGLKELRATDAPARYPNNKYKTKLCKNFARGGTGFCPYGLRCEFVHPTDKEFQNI
Source text: The expression and purification of recombinant MEX-5 protein has previously been described in Pagano, J. M., Farley, B. M., McCoig, L. M. and Ryder, S. P. (2007) “Molecular basis of RNA recognition by the embryonic polarity determinant MEX-5;” J Biol Chem; 282, 8883-8894. The fragment of mex-5 containing the TZF domain (amino acids 236-350) was amplified from a commercially available ORFeome clone (Open Biosystems) and sub-cloned into the vector pMal-c (NEB), which encodes maltose binding protein as an N-terminal fusion. This construct is termed pMal-MEX-5 (236-350).
MEX-5 is expressed in Escherchia. coli JM109 liquid cultures grown at 37° C. Cultures were induced during mid log phase by the addition of 0.1 mM isopropyl 1-thio-β-D-galactopyranoside (IPTG) and allowed to grow for three hours. An amount of 100 μM zinc acetate (final concentration) was added at the time of induction. The pelleted cells were resuspended in lysis buffer (50 mM Tris pH 8.8, 200 mM NaCl, 2 mM DTT, EDTA free protease inhibitor tablet (Roche), 100 μM Zn(OAc)2) and lysed by sonication. The soluble protein was purified in three steps using standard chromatography methods: (1) amylose affinity (NEB), (2) Hi-TRAP-Q (GE Healthcare), and (3) Hi-TRAP-S (GE Healthcare). The Q buffer was composed of 50 mM Tris, pH 8.8, 20 mM-1500 mM NaCl, 2 mM DTT, and 100 μM Zn(OAc)2. The S buffer was composed of 50 mM MOPS, pH 6.0, 20 mM-1500 mM NaCl, 2 mM DTT, 100 μM Zn(OAc)2. The pure fractions, determined by coomassie-stained SDS-PAGE, were dialyzed into storage buffer (20 mM Tris, pH 8.0, 25 mM NaCl, 100 μM Zn(OAc)2, 2 mM DTT). The protein concentration was determined by measuring absorbance at 280 nm and the calculated extinction coefficient. The protein was stored at 50 μM concentration at 4° C.
All RNA oligonucleotides were chemically synthesized by Dharmacon or Integrated DNA Technologies. Upon arrival, each RNA was deprotected and stored according to the manufacturer's instructions. Prior to use, the RNA was resuspended in 10 mM Tris-HCl, pH 8.0, 0.1 mM EDTA, and the concentration determined by UV spectrophotometry using the calculated extinction coefficient at 260 nm based on the specific sequence. The sequence of the MEX-5 binding RNA (TCR2) is […] (SEQ ID NO:1). The POS-1 binding RNA (BMF018) is […] (SEQ ID NO:2). The MEX-3 binding RNA (SEQ 14) is […] (SEQ ID NO:3).
The RNA used for the small molecule screen was labeled at the 3′-end with fluorescein by Dharmacon during synthesis. In a few cases, follow up experiments were performed with post-synthetically labeled RNA. In this case, fluorescein 5-thiosemicarbazide (FTSC, Invitrogen) was used to 3′-end label each RNA after treatment with sodium periodate (see Reines, S. A. and Cantor, C. R. (1974) “New fluorescent hydrazide reagents for the oxidized 3′-terminus of RNA” Nucleic Acids Res. 1, 767-786). A representative 50 μl reaction consisted of 0.5 nanomoles RNA, 100 mM NaOAc, pH 5.1, and 5 nanomoles NaIO4. After the reaction was complete (90 minutes at room temperature), the sample was ethanol precipitated by adding 1 μl RNase free glycogen (Invitrogen 20 μg/μl), 1/20th volume of 5 M NaCl, and 2 volumes of 100% ice-cold ethanol. The resulting pellet was resuspended in 50 μl of 100 mM NaOAc, pH 5.1 containing 1 mM FTSC and was allowed to react overnight at 4° C. in the dark. The unreacted label was removed by ethanol precipitation with resuspension of the pellet in a small volume of TE, and purification over a Roche G-25 size exclusion spin column. The labeling efficiency is determined by calculating the ratio of fluorescein absorbance at 490 nm to RNA-fluorescein absorbance at 260 nm. Typical efficiencies are 60-80%.
The ability of MEX-5 to associate with RNA was monitored by fluorescence polarization using a victor V3 or victor V2V plate reader (Perkin Elmer) in 384-well FluoTrak microplates (Grenier). […]

| remaining activity at 192 µM [%] | SMILES |
| --- | --- |
| 7.58 | Cc1cc(C)nc(NS(=O)(=O)c2ccc(Nc3nc(-c4ccc(O)c(O)c4)cs3)cc2)n1 [AC] |
| 8.62 | CCC(=O)NC(c1ccc(OC)c(OC)c1)c1cc([N+](=O)[O-])c2cccnc2c1O (stereo not shown) [AG] |
| 9.23 | O=[N+]([O-])c1cccc(S(=O)(=O)Nc2cc(Br)c(O)c3ccccc23)c1 [AJ] |
| 10.2 | CCCc1nnc(NC(=O)c2cccc(C(=O)Nc3nnc(CCC)s3)n2)s1 [AK] |
| 10.5 | CCOC(=O)c1c[nH]c2nc3ccccc3n2c1=O [AM] |
| 10.5 | Cn1c(-c2cc(Br)ccc2O)n[nH]c1=S [AN] |
| 12.2 | O=C(Nc1nc2ccccc2s1)c1cccc(C(=O)Nc2nc3ccccc3s2)n1 [AP] |
| 12.9 | S=C(Nc1ccccc1)Nc1nc2ccccc2n1Cc1ccccc1 [AR] |
| 13.1 | Cc1ccc(-n2c(-c3ccco3)n[nH]c2=S)cc1 [AS] |
| 13.2 | Cc1ccc(S(=O)(=O)Nc2nc(N3C(=O)c4ccccc4C3=O)n(-c3ccccc3)n2)cc1 [AT] |
| 14.1 | CCCCn1c(NC(=S)Nc2ccccc2)nc2ccccc21 [AW] |
| 14.1 | Cc1ccccc1Cn1c(S)nc2ccccc21 [AX] |
| 15.4 | Sc1nnc(COc2cccc(Br)c2)n1-c1ccccc1 [BB] |
| 15.5 | COc1ccc(OCCn2c(NC(C)=O)nc3ccccc32)cc1 [BC] |
| 15.5 | Sc1nnc(CCc2ccccc2)n1-c1ccccc1 [BD] |
| 16.1 | COc1ccc(C(=O)Nc2nc(N3C(=O)c4ccccc4C3=O)n(-c3ccccc3)n2)cc1 [BE] |
| 17.2 | Cc1cc([N+](=O)[O-])ccc1NC(=O)c1cnccn1 [BG] |
| 17.6 | O=C(Nc1nc2n(n1)C(c1ccccc1)C=C(c1ccccc1)N2)c1ccc([N+](=O)[O-])cc1 (stereo not shown) [BH] |
| 18.8 | Oc1ccccc1-c1n[nH]c(=S)n1-c1ccccc1 [BM] |
| 18.9 | COc1ccc(C(=O)NC(=S)Nc2cc(C)cc(C)c2)cc1Cl [BN] |
| 19.5 | Sc1nnc(-c2cccs2)n1CCc1ccccc1 [BQ] |
| 20.2 | CCCCC(=O)Nc1cccc(NC(=S)NC(=O)C(C)C)c1 [BT] |
| 21.2 | Cc1ccc(-c2cc(C(=O)Nc3ccccc3Cl)c3ccccc3n2)o1 [BW] |
| 21.2 | O=[N+]([O-])c1cc(CN2CCC(c3ccccc3)C2)c(O)c2ncccc12 (stereo not shown) [BX] |

| remaining activity at 192 µM [%] | SMILES |
| --- | --- |
| 21.4 | CCOC(=O)N1CCN(C(=S)Nc2ccc3nc(-c4ccccn4)c(-c4ccccn4)nc3c2)CC1 [BZ] |
| 22.5 | Cc1ccc(C(=O)Nc2nc(-c3ccccc3)c(-c3ccccc3)o2)cc1 [CC] |
| 22.7 | COc1ccc(OCc2nnc(S)n2-c2ccccc2)cc1 [CE] |
| 22.9 | COc1cc(-c2nnc(S)n2-c2ccc(C)cc2C)cc(OC)c1OC [CF] |
| 23 | CCc1ccc(-n2c(-c3cc(Cl)ccc3OC)n[nH]c2=S)cc1 [CG] |
| 23.1 | CCCn1c(NC(=S)Nc2ccccc2)nc2ccccc21 [CH] |
| 23.2 | O=C(CSc1nnc2c(n1)[nH]c1ccccc12)Nc1ccc(S(=O)(=O)Nc2nccs2)cc1 [CI] |
| 23.4 | O=c1[nH]c(=S)[nH]c2sc3c(c12)CCCCCCCCCC3 [CJ] |
| 23.4 | O=C(NC(=S)N(Cc1ccccc1)Cc1ccccc1)c1ccc([N+](=O)[O-])cc1 [CK] |
| 23.5 | Fc1ccc(-n2c(S)nnc2-c2cccs2)cc1 [CL] |
| 23.6 | CC(C)Oc1ccc(Cc2nnc(S)n2-c2ccccc2)cc1Cl [CM] |
| 23.9 | Cc1ccccc1OCc1nnc(S)n1C [CN] |
| 24.1 | O=C(NC(=S)N(Cc1ccccc1)Cc1ccccc1)c1ccc(Br)o1 [CP] |
| 24.7 | CCOC(=O)C(=O)Nc1nnc(C(C)(C)C)s1 [CR] |
| 25.2 | C=CCn1c(S)nnc1CCc1ccc(OC(C)C)cc1 [CS] |
| 25.2 | Sc1nnc(SCc2ccccc2Cl)s1 [CT] |
| 25.3 | CCc1cc(-c2n[nH]c(C)c2-c2nc3ccccc3s2)c(O)cc1OC [CU] |
| 25.5 | CC(=O)Nc1nc(N2C(=O)c3ccccc3C2=O)n(-c2ccccc2)n1 [CV] |
| 2.09 | CCOC(=O)Cc1nnc(NC(=O)c2ncn[nH]2)s1 [N] |
| 3.51 | CCOC(=O)C(=O)Nc1nnc(Cc2ccc(Cl)cc2)s1 [Q] |
| 3.52 | Sc1nnc(-c2cccs2)n1-c1ccccc1 [R] |
| 6.21 | O=[N+]([O-])c1cc(CN2CCOCC2)c2cccnc2c1O [U] |
| 6.26 | O=S(=O)(Nc1cc(Cl)c(O)c2ccccc12)c1cccs1 [V] |
| 6.69 | O=[N+]([O-])c1cccc(S(=O)(=O)Nc2cc(Cl)c(O)c3ccccc23)c1 [X] |

Same assay, conditions: read-out: MEX-5 score

| SMILES | remaining activity at 192 µM [%] |
| --- | --- |
| CC(=O)Oc1ccc2c(C)cc(=O)oc2c1OC(C)=O [CQ] | 24.5 |
